From patent US8080235B2, “Protein kinase A reporters useful in high throughput assays” (The Johns Hopkins University, priority 2005, dated 2011)
Where two headings read alike, the source gives them in different places. One block for each compound: values may come before it.

Legend:
[1] = test system: PKA activity; test: AKAR3 live cell 96-well plate reader assay (yellow/cyan emission ratio); format: cell-based; settings: for increase in yellow-to-cyan emission ratio of AKAR3: HEK-203 (sic) cells expressing AKAR3, 96-well plate, n=3
Protocol: (§1) Live Cell Plate Reading. HEK-293 cells were transfected with AKAR3 or ICUE3 using calcium phosphate at 40% confluency and grown for 40 hours. Cells were then trypsinized and plated in a Costar 3603 96-well plate (Corning) at a density of 150,000 cells per well. After incubation for another 24 hours, cells were washed once with HBSS and left in 150 μl of HBSS at 20-25° C. Fluorescence reading was taken on a FLUOstar OPTIMA fluorescence microplate reader (BMG Labtechnologies Inc.) using a 420DF20 excitation filter and two emission filters (470DF40 for cyan and 535DF25 for yellow). A baseline was established in three cycles, each consisting of a full plate reading of yellow intensity, followed by a reading of cyan intensity.
(§2) Each cycle lasted between 64 and 92 seconds. Cells were then treated with ISO, Fsk, H89, Propranolol (Pro; Sigma), or 3-isobutyl-1-methylxanthine (IBMX; Sigma) as indicated. Readings were taken in additional cycles. FRET change was calculated as the percent increase of emission ratios (yellow-to-cyan for AKAR and cyan-to-yellow for ICUE) over baseline for each well during a given cycle. Several parameters were calculated to assess the efficiency of the assay, including Z′ factor, coefficient of variation, and signal to noise (S/N) ratio (22).
AKAR2 (FIG. 4). This reporter, AKAR3 (FIG. 1b), was tested in a 96-well plate format. […] As negative controls, addition of buffer of 2% DMSO generated minimal changes in emission ratios. This 96-well plate assay was sensitive and reproducible, with a signal to noise ratio of 30.3, a Z′ factor of 0.84, and a coefficient of variation (CV) of 1.8% for the Fsk-stimulated response.
To provide specific readout of compartmentalized PKA activities, we introduced a C-terminal nuclear export signal (NES) to AKAR3 . In the plate reader assay using AKAR3 -NES (FIG. 1d), cytosolic PKA activity was recorded without contamination of nuclear activity, which has slower kinetics due to diffusional translocation of the catalytic subunit from cytosol to nucleus. […] Thus, sensor targeting provides increased temporal and spatial resolution and can be used to reveal how individual signaling microdomains, such as kinase-containing signaling complexes, are affected by drugs or other perturbations, adding another level of capacity to the non-image-based high-throughput assays of the invention.

[2] = test system: PKA activity; test: AKAR single-cell live imaging in HEK-293 cells; format: cell-based; settings: for AKAR3 response in single cell imaging: HEK-293, 10 μM epinephrine, 50 μM ritodrine, IBMX alone
Protocol: Cell Culture and Imaging. HEK-293 cells were plated onto sterilized glass coverslips in 35 mm dishes and grown to ˜50% confluency in DMEM (10% FBS at 37° C. with 5% CO2). Cells were transfected with calcium phosphate and grown for 12-24 hours before imaging. After washing once with Hanks' balanced salt solution (HBSS), cells were maintained in buffer in the dark at 20-25° C. Isoproterenol (ISO; Sigma), forskolin (Fsk; Calbiochem), H89 (Sigma) were added as indicated. Cells were imaged on a Zeiss Axiovert 200M microscope with a 40×/1.3NA oil-immersion objective lens and cooled CCD camera as described in (21). Briefly, dual emission ratio imaging used a 420DF20 excitation filter, a 450DRLP dichroic mirror, and two emission filters (475DF40 for cyan and 535DF25 for yellow). The ratios of yellow-to-cyan (for AKAR) or cyan-to-yellow (for ICUE) emissions were then calculated at different time points and normalized by dividing all ratios by the emission ratio before stimulation, setting basal emission ratio as 1.
One of the important advantages of genetically encoded reporters of the invention is that they can be targeted to subcellular locations via various targeting motifs. However, in some cases, subcellular targeting may sacrifice the response amplitude of a reporter. To determine whether the improved dynamic range of AKAR3 leads to sensitive detection of subcellular PKA activities, AKAR3 was targeted to two cellular compartments.

[3] = test system: cAMP; test: ICUE3 live cell high-throughput cAMP plate reader assay (cyan/yellow emission ratio); format: cell-based
Protocol: as §1, §2
To follow the activity of the signaling pathway and to assay related drug targets in parallel, we developed a live cell-based high-throughput assay for cAMP, a second messenger that is generated via activation of Gs-coupled GPCRs and exerts its effects by activating PKA and other effectors. Similar improvement approaches were first applied to create a reporter that more than doubled the response of previous “Indicator for cAMP Using Epac” (ICUE), which generates a decrease in FRET upon binding of cAMP (FIG. 5). […] Possible sources of the variation and reduced signal are transfection efficiency and expression variability.

[4] = test system: PKA activity; test: AKAR3 high-throughput screening of Johns Hopkins Clinical Compound Library; format: cell-based; settings: for agonist screen: AKAR response to compound alone: 10 μM, hit = larger than 6 times the standard deviation above negative control
Protocol: Live Cell High-Throughput Screening. […] After incubation for 24 hours, cells were washed once with HBSS and left in 190 μl of HBSS at 20-25° C. Fluorescence readings were taken as described above, with each cycle lasting 90 seconds. Following baseline acquisition, cells in each experimental well were treated with a compound from the Johns Hopkins Clinical Compound Library to a final concentration of 10 μM. Control cells were treated with 10 μL of 10% fetal bovine serum (FBS) in a solution of phosphate buffered saline (PBS) at pH 7.4, which is the solution used to dissolve library compounds.
Ten final cycles were then performed.
FRET responses were calculated as described above. […] Agonist hits were defined as compounds eliciting responses larger than six times the standard deviation above the baseline. Antagonist hits were defined as compounds which decreased the ISO stimulated response by 50% or by six times the standard deviation.
In a primary screening, 160 compounds from the Johns Hopkins Clinical Compound Library were added to AKAR3-expressing HEK-293 cells in individual wells of 96-well plates to a final concentration of 10 μM after a base line reading. Time courses were recorded to monitor any fluorescence changes upon drug addition and to identify hits which activate PKA as potential agonists.
Potential agonists were identified by selecting compounds which stimulated emission ratio changes larger than 6 times the standard deviation above the negative control (FIG. 3a ).

[5] = test system: cAMP; test: ICUE single cell imaging, ISO stimulation in the presence of IBMX; format: cell-based; settings: FIG. 3e, read-out: inhibition of ISO-stimulated ICUE response
Protocol: FIG. 3. High-throughput screening. FIG. 3A, normalized emission ratio (yellow/cyan) from cells expressing AKAR3 treated with individual library compounds, compared to the negative control in which only buffer was added and the positive control in which ISO (250 nM) was added (agonist screen). Individual bars along the X axis represent individual library compounds. The asterisks indicate responses of ritrodrine, ISO, and epinephrine. FIG. 3B, normalized emission ratio (yellow/cyan) from cells expressing AKAR3 first treated with individual library compounds for about 15 minutes, then stimulated by ISO (250 nM) (antagonist screen). The positive control in which only ISO was added and the negative control in which only buffer was added are shown as labeled. Individual bars along the X axis represent individual library compounds. The asterisks indicate responses from epinephrine and propranolol treated cells in response to ISO. FIG. 3C, representative time courses of emission ratio (yellow/cyan) change of cells expressing AKAR3 treated with 10 μM epinephrine followed by 50 μM FSK in single-cell imaging experiments. […]
Cell Culture and Imaging. […] The ratios of yellow-to-cyan (for AKAR) or cyan-to-yellow (for ICUE) emissions were then calculated at different time points and normalized by dividing all ratios by the emission ratio before stimulation, setting basal emission ratio as 1. […]

[6] = target: catalytic subunit of PKA (Homo sapiens, UniProt P17612); test: In vitro kinase assay with purified AKAR3 protein; format: biochemical; settings: n=2
Protocol: FIG. 7. Further characterization of AKAR3. Representative time courses of plasma membrane-targeted AKAR3 (FIG. 7a ) and nuclear-targeted AKAR3 (FIG. 7b ) in HEK-293 cells stimulated with 1 μM ISO and 50 μM FSK, respectively. FIG. 7c , AKAR3-expressing HEK-293 cells were treated with 200 nM phorbol dibutyrate (PDBu), a protein kinase C activator, followed by the addition of 1 μM isoproterenol, then 50 μM forskolin. FIG. 7d , representative time courses of the emission ratio change of AKAR3 in the presence (closed squares) and absence (open circles) of the specific PKA inhibitor, PKI. FIG. 7e , emission spectra of the purified AKAR3 before (squares) and after (diamonds) phosphorylation by PKA (excitation 434 nm). The curve using triangle symbols depicts the spectrum of the reporter after digestion with trypsin to quench the energy transfer and quantify the FRET. FIG. 7f , a representative phosphorylation time course for purified AKAR3 protein in the presence of PKA catalytic subunit and 1 mM ATP.
Lastly, in vitro kinase assays were carried out using purified AKAR3 protein from mammalian cell lysates.

Compound: C=C[C@@]1(C)CC(=O)[C@]2(O)[C@@]3(C)[C@@H](O)CCC(C)(C)[C@@H]3[C@H](O)[C@H](OC(C)=O)[C@@]2(C)O1 [Fsk, forskolin]
increase in yellow-to-cyan emission ratio of AKAR3 [1]: 25.7%±0.7%
average nuclear response of nuclear-targeted AKAR3 ([2]; HEK-293, 50 μM FSK, n=3, slower kinetics, FIG. 7b): 38.6%±8.45%
Emax ([3]; stable cell line, read-out: maximum response of ICUE assay): 43.3%
Emax ([3]; transient transfection, Fsk in the presence of 100 μM IBMX, FIG. 2c, read-out: maximum response of ICUE3): 24.1%

Compound: O=S(=O)(NCCNC/C=C/c1ccc(Br)cc1)c1cccc2cnccc12 [H89]
effect on Fsk-stimulated AKAR3 response ([1]; FIG. 2d): diminished
effect on AKAR3 response (PKA specificity) ([2]; PKI co-expression or H89 pretreatment): abolished
effect on Fsk-stimulated ICUE3 response ([3]; FIG. 2c): increased the ICUE3 response

Compound: CC(C)Cn1c(=O)n(C)c(=O)c2[nH]cnc21 [IBMX, 3-isobutyl-1-methylxanthine]
effect of supplementing on AKAR3 responses ([1]; FIG. 2): sustained responses and increased their amplitude
effect on ritodrine-stimulated AKAR3 response ([2]; 100 μM IBMX after 50 μM ritodrine, FIG. 3d): enhanced
AKAR3 response in single cell imaging [2]: did not generate any AKAR responses
effect of supplementing on ICUE3 responses ([3]; FIG. 2): sustained responses and increased their amplitude

Compound: CC(C)NCC(O)c1ccc(O)c(O)c1 (stereo not shown) [ISO, isoproterenol]
emission ratio change with AKAR3-NES compared to the AKAR3 assay ([1]; AKAR3-NES, plate reader, FIG. 1d): larger increase in emission ratio followed by a more rapid decrease
increase in yellow-to-cyan emission ratio of AKAR3 [1]: 22.1%±0.7%
average response of plasma membrane-targeted AKAR3 ([2]; HEK-293, 1 μM ISO, n=3, FIG. 7a): 34.3%±5.4%
maximum response (emission ratio elevation) of AKAR3.2 ([2]; HEK-293 cells expressing AKAR3.2, 1 μM ISO, FIG. 6): approximately 65%
agonist screen: AKAR response to compound alone [4]: stimulated AKAR responses on their own

Compound: C=CC1=C(C)/C(=C/c2[nH]c(Cc3[nH]c(/C=C4\NC(=O)C(C)=C4C=C)c(C)c3CCC(=O)O)c(CCC(=O)O)c2C)NC1=O [bilirubin]
inhibition at 1 µM ([5]; 1 μM bilirubin): 40%
inhibition at 10 µM ([5]; 10 μM bilirubin): > 60%

Compound: CNC[C@H](O)c1ccc(O)c(O)c1 [epinephrine]
AKAR3 response in single cell imaging [2]: stimulates cAMP production and PKA activation
antagonist screen: effect on ISO-stimulated AKAR response ([4]; 10 μM compound about 15 min, then 0.25 μM ISO): decreased the cell response to subsequent stimulation by ISO
agonist screen: AKAR response to compound alone [4]: stimulated AKAR responses on their own

Compound: CC(NCCc1ccc(O)cc1)C(O)c1ccc(O)cc1 (stereo not shown) [ritodrine]
AKAR3 response in single cell imaging [2]: moderate and gradual response
agonist screen: AKAR response to compound alone [4]: stimulated AKAR responses on their own

Compound: AKAR3.2: PKA reporter fusion protein SEQ ID NO:4: cerulean fluorescent protein, FHA1, SEQ ID NO:3, circularly permuted YFP variant
dynamic range of the reporter [2]: 55-65%

emission ratio increase after addition of ATP ([6]; purified AKAR3, PKA catalytic subunit, 1 mM ATP, approximately 40 minutes): 29.1%±1.11%
FRET efficiency after phosphorylation ([6]; quantified using trypsin): 47.2%±7.67%
FRET efficiency before phosphorylation ([6]; quantified using trypsin): 38.8%±7.36%
Compound: AKAR3: PKA reporter fusion protein SEQ ID NO:1: ECFP 1-227, FHA1, PKA substrate linker SEQ ID NO:3, circularly permuted Venus
increase in emission ratio (yellow over cyan) of the reporter [2]: about 40%
